# Data from US12194007B2, “Pharmaceutical composition for preventing or treating cancer, comprising gossypol, phenformin, and anticancer agent” (National Cancer Center, priority 2018, dated 2025).
# Read-outs that look alike come from different tables or passages of the source.
# Legend:
# [1] = test system: BT549 cell line or MB231 cell line; experiment: SRB cell proliferation assay, breast cancer cell lines; type: cell-based; settings: for degree of cell proliferation with respect to the untreated control: gossypol 5 μM, phenformin 100 μM, third agent per Table 13 paclitaxel 50 nM, single, double or triple (FIG. 5A); for synergistic effect of anticancer action when mixed with gossypol and phenformin: breast cancer, named agent + gossypol 5 μM + phenformin 100 μM (Tables 13-15)
# [2] = test system: SK-OV-3 or OVCAR3 cell line; experiment: SRB cell proliferation assay, ovarian cancer cell lines; type: cell-based; settings: for degree of cell proliferation with respect to the untreated control: gossypol 5 μM, phenformin 100 μM, single or double (Table 16, FIG. 6A); for degree of cell proliferation with respect to the untreated control / synergistic effect of anticancer action when mixed with gossypol and phenformin: cisplatin 1 nM; for synergistic effect of anticancer action when mixed with gossypol and phenformin: ovarian cancer, paclitaxel 50 nM or irinotecan 0.5 μM + gossypol 5 μM + phenformin 100 μM; for effect of inhibiting cell proliferation in the triple drug treatment group: paclitaxel 50 nM or irinotecan 0.5 μM mixed with gossypol 5 μM and phenformin 100 μM (Tables 17-18, FIGS. 6B, 6C)
# [3] = test system: UACC62 cell line or an A375 cell line; experiment: SRB cell proliferation assay, melanoma cell lines; type: cell-based; settings: for degree of cell proliferation with respect to the untreated control: gossypol 5 μM, phenformin 100 μM, single, double or triple (Table 4, FIG. 2A); for effect of inhibiting cell proliferation in the triple drug treatment group: cisplatin or oxaliplatin 10 μM mixed with gossypol 5 μM and phenformin 100 μM (Tables 5-6, FIGS. 2B, 2C)
# SNU449 or Huh7 cell line = experiment: SRB cell proliferation assay, liver cancer cell lines; type: cell-based; settings: for degree of cell proliferation with respect to the untreated control: gossypol 5 μM, phenformin 100 μM, cisplatin 1 μM, single or double (Table 22, FIG. 8A); for synergistic effect of anticancer action when mixed with gossypol and phenformin: liver cancer, cisplatin 1 μM or sorafenib 5 μM + gossypol 5 μM + phenformin 100 μM
# [4] = test system: PC3 cell line or DU145 cell line; experiment: SRB cell proliferation assay, prostate cancer cell lines; type: cell-based; settings: for effect of inhibiting cell proliferation in the triple drug treatment group: docetaxel 50 nM or irinotecan 0.5 μM mixed with gossypol 5 μM and phenformin 100 μM (Tables 20-21, FIGS. 7B, 7C)
# [5] = test system: HT29 cell line or Colo205 cell line; experiment: SRB cell proliferation assay, colorectal cancer cell lines; type: cell-based; settings: for degree of cell proliferation with respect to the untreated control: gossypol 2.5 μM, phenformin 50 μM, irinotecan 1 μM, single, double or triple (Table 7, FIG. 3A); for synergistic effect of anticancer action when mixed with gossypol and phenformin: colon cancer, irinotecan 1 μM (phenformin 50 μM) or cisplatin/capecitabine 10 μM (phenformin 75 μM) + gossypol 2.5 μM; for effect of inhibiting cell proliferation in the triple drug treatment group: cisplatin or capecitabine 10 μM mixed with gossypol 2.5 μM and phenformin 75 μM (Tables 8-9, FIGS. 3B, 3C)
# [6] = test system: SNU638 cells xenograft tumor; experiment: Gastric cancer mouse model, tumor growth; type: in vivo, Balb/c-nu mice; settings: gossypol 80 mg/kg, phenformin 100 mg/kg, irinotecan 30 mg/kg, single, double or triple; vs solvent control (Table 27, FIGS. 12A, 12B)
# Protocol: First, in order to make a lung cancer mouse model, 6 to 8 week old Balb/c-nu mice (Central Lab. Animal, Highland Heights, KY, USA) were prepared. In addition, 7.5×10^6 A549 cell line was cultured, and was injected subcutaneously to the prepared mice with a 1 ml syringe. Mice were reared for 1 week and divided into 4 groups of 8 mice each, and these were used as a control group or an experimental group as defined in [Table 24] and [Table 25]. The solvent or drug was orally administered to the mice of the solvent control group, the double drug treatment group, and the triple drug treatment group once a day, 6 days per week, and while administering intravenously irinotecan to the mice of the single treatment group with irinotecan once a day, 1 day per week, the mice were reared in the same environment for a total of 49 days. While breeding, the average was obtained by checking the weight and size of the tumor of the mouse group every 7 days. After injection of lung cancer cells, the initial tumor size was specified using a calliper. The tumor volume was calculated according to the following [Equation 1].
# Specifically, the mouse model with the gastric cancer was prepared by the same method as the method of preparing the lung cancer mouse model in [Example 9], except that the mouse model with the gastric cancer was prepared by xenografting SNU638 cells (1.5×10^7). Then, the prepared mouse model with the gastric cancer was used as a control group or an experimental group as defined in the following [Table 27].
# [7] = test system: ACHN cell line or CAKI-1 cell line; experiment: SRB cell proliferation assay, kidney cancer cell lines; type: cell-based; settings: for degree of cell proliferation with respect to the untreated control: gossypol 2.5 μM, phenformin 100 μM, sorafenib 10 μM, single, double or triple (Table 1, FIG. 1A)
# Protocol: Specifically, while culturing the ACHN cell line or CAKI-1 cell line, which is a kidney cancer cell line, each cell was inoculated into a 96-well plate at a density of 5,000 to 20,000 cells/well depending on the amplification phase of the culture time. After inoculation, the anticancer agent mixtures of the following [Table 1] to [Table 3] were added to each well and cultured in a CO2 incubator for 24 hours. The anticancer agent mixture was prepared so that the final concentration of each anticancer agent can be appropriately added by mixing each at a stock concentration and then adding 100 μl each. After treatment with the anticancer agent, cells were further cultured for 48 hours, and then 10% (w/v) trichloroacetic acid (TCA) was added to each well and incubated at 4° C. for 60 minutes to fix the cells. The supernatant liquid other than the fixed cells was removed, the plate was washed 5 times with tap water, and then dried in air. After drying, 100 μl of 0.4% (w/v) sulforhodamine B buffer solution containing 1% acetic acid was added to each well, and left at room temperature for 5 minutes to stain the cells. After staining the cells, the cells were washed 5 times with 1% acetic acid to remove unstained dye and then dried in air. The colored dye was immobilized with 10 mM trizma base, and then absorbance was measured at 515 nm using a plate reader. As an untreated control, the degree of cell proliferation of a cell line cultured without treatment with an anticancer agent was measured, and the degree of cell proliferation of each experimental group with respect to the untreated control was calculated as a relative ratio and expressed as a percentage (%).
# [8] = test system: A549 cell line or H522 cell line; experiment: SRB cell proliferation assay, non-small cell lung cancer cell lines; type: cell-based; settings: for degree of cell proliferation with respect to the untreated control: gossypol 5 μM, phenformin 100 μM, single, double or triple (Table 10, FIG. 4A); for degree of cell proliferation with respect to the untreated control / synergistic effect of anticancer action when mixed with gossypol and phenformin: irinotecan 1 μM; for synergistic effect of anticancer action when mixed with gossypol and phenformin: lung cancer (NSCLC), cisplatin 20 μM or 5-FU 5 μM + gossypol 5 μM + phenformin 100 μM; for effect of inhibiting cell proliferation in the triple drug treatment group: cisplatin 20 μM or 5-FU 5 μM mixed with gossypol 5 μM and phenformin 100 μM (Tables 11-12, FIGS. 4B, 4C)
# [9] = test system: A549 cell line xenograft tumor; experiment: Lung cancer mouse model, tumor growth; type: in vivo, Balb/c-nu mice
# Protocol: First, in order to make a lung cancer mouse model, 6 to 8 week old Balb/c-nu mice (Central Lab. Animal, Highland Heights, KY, USA) were prepared. In addition, 7.5×10^6 A549 cell line was cultured, and was injected subcutaneously to the prepared mice with a 1 ml syringe. Mice were reared for 1 week and divided into 4 groups of 8 mice each, and these were used as a control group or an experimental group as defined in [Table 24] and [Table 25]. […] While breeding, the average was obtained by checking the weight and size of the tumor of the mouse group every 7 days. After injection of lung cancer cells, the initial tumor size was specified using a calliper. The tumor volume was calculated according to the following [Equation 1].
smiles,measurement,setting,value
NC(N)=N/C(N)=N/CCc1ccccc1 [phenformin],degree of cell proliferation with respect to the untreated control,[1],proliferation of cancer cells could be inhibited at a significant level
same,degree of cell proliferation with respect to the untreated control,[2],proliferation of cancer cells could be inhibited at a significant level
same,degree of cell proliferation with respect to the untreated control,[3]; vemurafenib 0.5 μM,proliferation of cancer cells could be inhibited at a significant level
same,degree of cell proliferation with respect to the untreated control,SNU449 or Huh7 cell line,proliferation of cancer cells could be inhibited at a significant level
same,degree of cell proliferation with respect to the untreated control,"[4]; gossypol 5 μM, phenformin 100 μM, doxorubicin 1 nM, single, double or triple (Table 19, FIG. 7A)",proliferation of cancer cells could be inhibited at a significant level
same,degree of cell proliferation with respect to the untreated control,[5],proliferation of cancer cells could be inhibited at a significant level
same,level of tumor growth,[6],a level similar to levels of tumor growth
same,degree of cell proliferation with respect to the untreated control,[7],proliferation of cancer cells could be inhibited
same,degree of cell proliferation with respect to the untreated control,[8],proliferation of cancer cells could be inhibited at a significant level
CCc1c2c(nc3ccc(OC(=O)N4CCC(N5CCCCC5)CC4)cc13)-c1cc3c(c(=O)n1C2)COC(=O)[C@]3(O)CC [irinotecan],synergistic effect of anticancer action when mixed with gossypol and phenformin,[1],can exhibit a synergistic effect
same,degree of cell proliferation with respect to the untreated control,[1],proliferation of cancer cells could be inhibited at a significant level
same,synergistic effect of anticancer action when mixed with gossypol and phenformin,[2],not exhibited
same,effect of inhibiting cell proliferation in the triple drug treatment group,[2],level similar to that of the double drug treatment group
same,effect of inhibiting cell proliferation in the triple drug treatment group,[4],level similar to that of the double drug treatment group
same,synergistic effect of anticancer action when mixed with gossypol and phenformin,[5],can exhibit a synergistic effect
same,degree of cell proliferation with respect to the untreated control,[5],proliferation of cancer cells could be inhibited at a significant level
same,level of tumor growth,[6],significantly decreased the level of tumor growth
same,degree of cell proliferation with respect to the untreated control,[8],proliferation of cancer cells could be inhibited at a significant level
same,synergistic effect of anticancer action when mixed with gossypol and phenformin,[8],can exhibit a synergistic effect
CC(=O)O[C@@]12CO[C@@H]1C[C@H](O)[C@@]1(C)C(=O)[C@H](O)C3=C(C)[C@@H](OC(=O)[C@H](O)[C@@H](NC(=O)OC(C)(C)C)c4ccccc4)C[C@@](O)([C@@H](OC(=O)c4ccccc4)[C@H]21)C3(C)C [docetaxel],effect of inhibiting cell proliferation in the triple drug treatment group,[4],level similar to that of the double drug treatment group
Nc1ccn([C@@H]2O[C@H](CO)[C@@H](O)C2(F)F)c(=O)n1 [gemcitabine],anticancer synergistic effect of the triple drug administration,[9]; gemcitabine 40 mg/kg with gossypol 80 mg/kg and phenformin 100 mg/kg (FIG. 10),not observed
same,tumor growth (change in tumor size),"[9]; gemcitabine experiment: gossypol 80 mg/kg, phenformin 100 mg/kg, gemcitabine 40 mg/kg, single or double (Table 25, FIG. 10)",tumor growth at a level similar to that of the solvent administration group
CCCCCOC(=O)Nc1nc(=O)n([C@@H]2O[C@H](C)[C@@H](O)[C@H]2O)cc1F [capecitabine],effect of inhibiting cell proliferation in the triple drug treatment group,[5],level similar to that of the double drug treatment group
same,synergistic effect of anticancer action when mixed with gossypol and phenformin,[5],not exhibited
CC(=O)O[C@H]1C(=O)[C@@]2(C)[C@H]([C@H](OC(=O)c3ccccc3)[C@]3(O)C[C@H](OC(=O)[C@H](O)[C@@H](NC(=O)c4ccccc4)c4ccccc4)C(C)=C1C3(C)C)[C@]1(OC(C)=O)CO[C@@H]1C[C@@H]2O [paclitaxel],synergistic effect of anticancer action when mixed with gossypol and phenformin,[2],not exhibited
same,effect of inhibiting cell proliferation in the triple drug treatment group,[2],level similar to that of the double drug treatment group
CNC(=O)c1cc(Oc2ccc(NC(=O)Nc3ccc(Cl)c(C(F)(F)F)c3)cc2)ccn1 [sorafenib],synergistic effect of anticancer action when mixed with gossypol and phenformin,SNU449 or Huh7 cell line,not exhibited
same,effect of inhibiting cell proliferation in the triple drug treatment group,"SNU449 or Huh7 cell line; sorafenib 5 μM mixed with gossypol 5 μM and phenformin 100 μM (Table 23, FIG. 8B)",level similar to that of the double drug treatment group
same,degree of cell proliferation with respect to the untreated control,[7],proliferation of cancer cells could be inhibited
same,synergistic effect of anticancer action when mixed with gossypol and phenformin,"[7]; renal cell carcinoma, named agent 10 μM + gossypol 2.5 μM + phenformin 100 μM",can exhibit a synergistic effect
Cc1cc2c(C(C)C)c(O)c(O)c(C=O)c2c(O)c1-c1c(C)cc2c(C(C)C)c(O)c(O)c(C=O)c2c1O [gossypol],degree of cell proliferation with respect to the untreated control,[1],proliferation of cancer cells could be inhibited at a significant level
same,degree of cell proliferation with respect to the untreated control,[2],proliferation of cancer cells could be inhibited at a significant level
same,degree of cell proliferation with respect to the untreated control,[3]; vemurafenib 0.5 μM,proliferation of cancer cells could be inhibited at a significant level
same,degree of cell proliferation with respect to the untreated control,SNU449 or Huh7 cell line,proliferation of cancer cells could be inhibited at a significant level
same,degree of cell proliferation with respect to the untreated control,[4],proliferation of cancer cells could be inhibited at a significant level
same,degree of cell proliferation with respect to the untreated control,[5],proliferation of cancer cells could be inhibited at a significant level
same,level of tumor growth,[6],a level similar to levels of tumor growth
same,degree of cell proliferation with respect to the untreated control,[7],proliferation of cancer cells could be inhibited
same,degree of cell proliferation with respect to the untreated control,[8],proliferation of cancer cells could be inhibited at a significant level
N.N.[Cl][Pt][Cl] [cisplatin],synergistic effect of anticancer action when mixed with gossypol and phenformin,[1],not exhibited
same,effect of inhibiting cell proliferation in the triple drug treatment group,"[1]; cisplatin 1 μM or doxorubicin 1 μM mixed with gossypol 5 μM and phenformin 100 μM (Tables 14-15, FIGS. 5B, 5C)",level similar to that of the double drug treatment group
same,degree of cell proliferation with respect to the untreated control,[2],proliferation of cancer cells could be inhibited at a significant level
same,synergistic effect of anticancer action when mixed with gossypol and phenformin,[2],can exhibit a synergistic effect
same,effect of inhibiting cell proliferation in the triple drug treatment group,[3],level similar to that of the double drug treatment group
same,synergistic effect of anticancer action when mixed with gossypol and phenformin,"[3]; melanoma, vemurafenib 0.5 μM, cisplatin 10 μM or oxaliplatin 10 μM + gossypol 5 μM + phenformin 100 μM",not exhibited
same,degree of cell proliferation with respect to the untreated control,SNU449 or Huh7 cell line,proliferation of cancer cells could be inhibited at a significant level
same,synergistic effect of anticancer action when mixed with gossypol and phenformin,SNU449 or Huh7 cell line,can exhibit a synergistic effect
same,effect of inhibiting cell proliferation in the triple drug treatment group,[5],level similar to that of the double drug treatment group
same,synergistic effect of anticancer action when mixed with gossypol and phenformin,[5],not exhibited
same,effect of inhibiting cell proliferation in the triple drug treatment group,[8],level similar to that of the double drug treatment group
same,synergistic effect of anticancer action when mixed with gossypol and phenformin,[8],not exhibited
"O=c1[nH]cc(F)c(=O)[nH]1 [5-FU, 5-fluorouracil]",effect of inhibiting cell proliferation in the triple drug treatment group,[8],level similar to that of the double drug treatment group
same,synergistic effect of anticancer action when mixed with gossypol and phenformin,[8],not exhibited
O=C1[O][Pt]2([NH][C@@H]3CCCC[C@H]3[NH]2)[O]C1=O [oxaliplatin],effect of inhibiting cell proliferation in the triple drug treatment group,[3],level similar to that of the double drug treatment group
